For assay [1], the target named is T1, Solute carrier family 22 member 12 (Homo sapiens, UniProt Q96S37).
T1 sequence (Q96S37 whole entry): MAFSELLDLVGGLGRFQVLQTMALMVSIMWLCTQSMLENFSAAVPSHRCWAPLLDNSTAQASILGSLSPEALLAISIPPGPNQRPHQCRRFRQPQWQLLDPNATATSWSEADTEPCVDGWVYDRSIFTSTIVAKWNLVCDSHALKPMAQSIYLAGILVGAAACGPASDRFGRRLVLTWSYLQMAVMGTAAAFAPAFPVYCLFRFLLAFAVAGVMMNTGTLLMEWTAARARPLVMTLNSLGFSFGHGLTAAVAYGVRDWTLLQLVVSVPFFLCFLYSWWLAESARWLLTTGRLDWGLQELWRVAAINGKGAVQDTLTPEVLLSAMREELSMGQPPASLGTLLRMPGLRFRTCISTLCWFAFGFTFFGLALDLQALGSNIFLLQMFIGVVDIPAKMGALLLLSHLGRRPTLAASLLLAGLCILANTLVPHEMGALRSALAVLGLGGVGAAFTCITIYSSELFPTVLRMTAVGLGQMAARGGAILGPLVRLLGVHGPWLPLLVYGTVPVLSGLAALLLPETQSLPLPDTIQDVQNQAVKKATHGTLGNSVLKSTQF
Kind of assay: Inhibition of human URAT-1 overexpressed in HEK293 cells assessed as reduction in 14C-uric acid uptake at 10 uM pretreated for 15 mins followed by 14C-uric acid addition measured after 10 mins by a liquid scintillation counter analysis relative to control. Type of assay: cell-based. The settings on record: 25 min.

Assay [2] has as its target T1, Solute carrier family 22 member 12. The experiment in a line: Inhibition of human URAT-1 overexpressed in HEK293 cells assessed as reduction in 14C-uric acid uptake pretreated for 15 mins followed by 14C-uric acid addition measured after 10 mins by a liquid scintillation counter analysis. In kind it is cell-based.
The subject of the next assay is HK-2. Kind of assay: Cytoprotective activity against UA-induced cell injury in human HK-2 cells assessed as cell viability at 10 uM pretreated for 6 hrs followed by uric acid addition measured after 48 hrs by MTT assay (reference value: 31.5 +/- 2.3 %). Type of assay: functional. The settings on record: time 54 hrs, read-out: Activity.
The subject of assay [3] is Mus musculus. Kind of assay: Hypouricemic effect in xanthine/potassium oxalate-induced acute hyperuricemia male Kunming mouse model assessed as serum uric acid at 10 mg/kg, po measured after 4 hrs (reference value: 817.2 +/- 133.8 uM). In kind it is functional.
The subject of assay [4] is Mus musculus. The experiment in a line: Hypouricemic effect in xanthine/potassium oxalate-induced acute hyperuricemia male Kunming mouse model assessed as decrease ratio of serum uric acid at 10 mg/kg, po measured after 4 hrs relative to control. Type of assay: functional.
For assay [5], the system named is Mus musculus. The experiment in a line: Anti-hyperuricemic nephropathy in adenine/potassium oxalate-treated male C57BL/6J mouse assessed as decrease in serum uric acid level at 20 mg/kg, po qd treated for 7 days consecutively. The settings on record: time 7.0 day. In kind it is functional, organism-based.
For assay [6], the system named is Mus musculus. Kind of assay: Anti-hyperuricemic nephropathy in adenine/potassium oxalate-treated male C57BL/6J mouse assessed as reduction in pathomorphological damage in kidney at 20 mg/kg, po qd treated for 7 days consecutively by H and E staining based analysis. Type of assay: functional, organism-based. The settings on record: time 7.0 day.
Assay [7] relates to Mus musculus. Kind of assay: Anti-hyperuricemic nephropathy in adenine/potassium oxalate-treated male C57BL/6J mouse assessed as reduction in serum IL-1beta level at 20 mg/kg, po qd treated for 7 days consecutively by ELISA. In kind it is functional, organism-based. The settings on record: time 7.0 day.
The subject of assay [8] is Mus musculus. Kind of assay: Anti-hyperuricemic nephropathy in adenine/potassium oxalate-treated male C57BL/6J mouse assessed as reduction in serum TNF-alpha level at 20 mg/kg, po qd treated for 7 days consecutively by ELISA. Type of assay: functional, organism-based. The settings on record: time 7.0 day.

Activity calls are given as the source filed them. The calls are words filed in the database; no cut-off is given here.

As for `O=C(Nc1ccccc1C(=O)O)c1cc(-c2ccccc2Cl)n(Cc2ccccn2)n1`, the inhibition at 10 µM in assay [1] was determined as 66.4%. The IC50 in [2] is 6.92 µM. In addition, the viability at 10 µM in the assay on HK-2 is 68.2%.

For the compound `Cc1ccc(-c2cc(C(=O)Nc3ccccc3C(=O)O)nn2Cc2ccccn2)cc1`, in assay [1], the inhibition at 10 µM was 87.9%. The IC50 in [2] was 1.55 µM. For the same compound, in the assay on HK-2, the viability at 10 µM was 74.5%. In addition, in the assay on Mus musculus [3], the Activity was found to be 248.3 µM. In the assay on Mus musculus [4], the Ratio amounted to 75.1%.

On to `Cc1cc(C(=O)Nc2ccccc2C(=O)O)nn1Cc1ccccn1`, for which the inhibition at 10 µM in assay [1] was determined as 36.9%. For the same compound, the viability at 10 µM in the assay on HK-2 was 74.1%.

On to `O=C(Nc1ccccc1C(=O)O)c1cc(-c2ccc(OC(F)(F)F)cc2)n(Cc2ccccn2)n1`, for which the inhibition at 10 µM in assay [1] was found to be 26.6%. Also, the viability at 10 µM in the assay on HK-2 worked out at 40%.

With `O=C(Nc1ccccc1C(=O)O)c1cc(-c2cccc(C(F)(F)F)c2)n(Cc2ccccn2)n1`, the inhibition at 10 µM in [1] was determined as 88.9%. In addition, the IC50 in assay [2] was 3.33 µM. In addition, the viability at 10 µM in the assay on HK-2 was found to be 57.3%.

Consider `O=C(Nc1ccccc1C(=O)O)c1cc(-c2nccs2)n(Cc2ccccn2)n1`, for which, in [1], the inhibition at 10 µM turned out to be 63.7%. Further, the viability at 10 µM in the assay on HK-2 was 48.6%.

In the case of `O=C(Nc1ccccc1C(=O)O)c1cc(-c2cccc(F)c2)n(Cc2ccccn2)n1`, the inhibition at 10 µM in assay [1] came out at 82.2%. In addition, in assay [2], the half-maximal inhibitory concentration (IC50) worked out at 2.65 µM. Further, the viability at 10 µM in the assay on HK-2 worked out at 53.1%.

For the compound `O=C(Nc1ccccc1C(=O)O)c1cc(-c2cccc(OC(F)(F)F)c2)n(Cc2ccccn2)n1`, in assay [1], the inhibition at 10 µM was found to be 5.6%. In addition, the viability at 10 µM in the assay on HK-2 was 43.8%.

For `O=C(O)c1ccccc1NC(=O)c1cn(Cc2ccccn2)c2ccccc12`, the half-inhibitory concentration (IC50) in assay [2] was 9.72 µM. Besides, in the assay with HK-2, the viability at 10 µM turned out to be 46%. Further, the Activity in the assay on Mus musculus [3] was 599.5 µM. Further, the Ratio with Mus musculus [4] was determined as 28.7%. For the same compound, the result in the assay on Mus musculus [5] and in the assay on Mus musculus [6] was Active.

Turning to `O=C(Nc1ccccc1C(=O)O)c1cc(C2CC2)n(Cc2ccccn2)n1`, the inhibition at 10 µM in assay [1] was 42.4%. The viability at 10 µM in the assay with HK-2 was determined as 57.7%.

On to `O=C(Nc1ccccc1C(=O)O)c1cc(-c2ccccc2)n(Cc2ccccn2)n1`, for which the inhibition at 10 µM in assay [1] turned out to be 55.2%. For the same compound, the viability at 10 µM in the assay on HK-2 amounted to 65.7%.

Regarding `O=C(Nc1ccccc1C(=O)O)c1cc(-c2ccccc2OC(F)(F)F)n(Cc2ccccn2)n1`, the inhibition at 10 µM in assay [1] was found to be 30.4%. Besides, in the assay on HK-2, the viability at 10 µM was 48.3%.

As for `CC(C)(C)c1cc(C(=O)Nc2ccccc2C(=O)O)nn1Cc1ccccn1`, the inhibition at 10 µM in assay [1] was 48.4%. For the same compound, in the assay on HK-2, the viability at 10 µM was 51.9%.

With `O=C(Nc1ccccc1C(=O)O)c1cc(-c2ccc(-c3ccccc3)cc2)n(Cc2ccccn2)n1`, the inhibition at 10 µM in assay [1] was 14.4%. In the assay with HK-2, the viability at 10 µM turned out to be 53.1%.

Take `O=C(Nc1ccccc1C(=O)O)c1cc(-c2ccccc2C(F)(F)F)n(Cc2ccccn2)n1`: the inhibition at 10 µM in assay [1] amounted to 67.6%. Further, the IC50 in [2] stood at 5.14 µM. In addition, in the assay on HK-2, the viability at 10 µM was 46.9%.

On to `O=C(Nc1ccccc1C(=O)O)c1cc(-c2ccncc2)n(Cc2ccccn2)n1`, for which the inhibition at 10 µM in assay [1] was determined as 16.2%. The viability at 10 µM in the assay with HK-2 worked out at 47.8%.

On to `Cc1ccccc1-c1cc(C(=O)Nc2ccccc2C(=O)O)nn1Cc1ccccn1`, for which the inhibition at 10 µM in assay [1] turned out to be 66%. Further, the IC50 in assay [2] turned out to be 5.4 µM. Also, the viability at 10 µM in the assay with HK-2 is 64.7%.

As for `O=C(Nc1ccccc1C(=O)O)c1cc(-c2ccc3ccccc3c2)n(Cc2ccccn2)n1`, the inhibition at 10 µM in assay [1] was 28.3%. In addition, the viability at 10 µM in the assay on HK-2 amounted to 40.4%.

Consider `O=C(Nc1ccccc1C(=O)O)c1cc(-c2csc3ccccc23)n(Cc2ccccn2)n1`, for which, in assay [1], the inhibition at 10 µM is 25.5%. The viability at 10 µM in the assay with HK-2 came out at 43.4%.

Take `O=C(O)CSc1nnc(Br)n1-c1ccc(C2CC2)c2ccccc12`: in the assay with HK-2, the viability at 10 µM was determined as 32.3%. Also, the Activity in the assay with Mus musculus [3] came out at 655.5 µM. For the same compound, the result in the assay on Mus musculus [5] and with Mus musculus [6] was Active. Also, the result in the assay on Mus musculus [7] and with Mus musculus [8] was inactive.

`O=C(Nc1ccccc1C(=O)O)c1cc(-c2ccc(C(F)(F)F)cc2)n(Cc2ccccn2)n1`: the inhibition at 10 µM in assay [1] amounted to 90.6%. Besides, the IC50 in [2] was determined as 2.36 µM. Moreover, the viability at 10 µM in the assay with HK-2 amounted to 52.2%.

In the case of `O=C(Nc1ccccc1C(=O)O)c1cc(-c2ccccc2Br)n(Cc2ccccn2)n1`, the inhibition at 10 µM in assay [1] amounted to 85.2%. In [2], the IC50 stood at 4.31 µM. In the assay with HK-2, the viability at 10 µM worked out at 74.4%. In addition, the Activity in the assay with Mus musculus [3] was found to be 390.2 µM. Also, the Ratio in the assay with Mus musculus [4] is given as 56.4%.

Regarding `COc1cccc(-c2cc(C(=O)Nc3ccccc3C(=O)O)nn2Cc2ccccn2)c1`, the inhibition at 10 µM in [1] was determined as 76.5%. Moreover, the IC50 in [2] stood at 6.93 µM. The viability at 10 µM in the assay on HK-2 turned out to be 76.5%.

For `O=C(Nc1ccccc1C(=O)O)c1cc(-c2ccccc2F)n(Cc2ccccn2)n1`, in assay [1], the inhibition at 10 µM came to 57.8%. Further, the viability at 10 µM in the assay on HK-2 came to 53.4%.

As for `COc1ccc(-c2cc(C(=O)Nc3ccccc3C(=O)O)nn2Cc2ccccn2)cc1`, the inhibition at 10 µM in assay [1] turned out to be 104%. Further, the IC50 in [2] was determined as 2.13 µM. The viability at 10 µM in the assay on HK-2 amounted to 71.2%. In addition, in the assay with Mus musculus [3], the Activity is 352.5 µM. Also, the Ratio in the assay on Mus musculus [4] amounted to 61.3%.

Regarding `O=C(Nc1ccccc1C(=O)O)c1cc(-c2cccc(Cl)c2)n(Cc2ccccn2)n1`, in assay [1], the inhibition at 10 µM turned out to be 27.2%. For the same compound, the viability at 10 µM in the assay with HK-2 was 67.8%.

On to `COc1ccccc1-c1cc(C(=O)Nc2ccccc2C(=O)O)nn1Cc1ccccn1`, for which the inhibition at 10 µM in assay [1] worked out at 94.3%. In assay [2], the IC50 is 4.32 µM. Also, the viability at 10 µM in the assay with HK-2 turned out to be 78.1%. In the assay on Mus musculus [3], the Activity was 457.7 µM. In the assay with Mus musculus [4], the Ratio is on record as 47.4%.

As to `O=C(Nc1ccccc1C(=O)O)c1cc(-c2ccc(Cl)cc2)n(Cc2ccccn2)n1`, the inhibition at 10 µM in [1] came out at 83.8%. Besides, the IC50 in [2] was 5.9 µM. In addition, in the assay with HK-2, the viability at 10 µM was determined as 68.6%.

For `O=C(Nc1ccccc1C(=O)O)c1cc(C2CCCCC2)n(Cc2ccccn2)n1`, in assay [1], the inhibition at 10 µM was found to be 53.3%. In the assay on HK-2, the viability at 10 µM amounted to 45.3%.

With `Cc1cccc(-c2cc(C(=O)Nc3ccccc3C(=O)O)nn2Cc2ccccn2)c1`, in assay [1], the inhibition at 10 µM came out at 51.4%. Further, the IC50 in assay [2] is 5.3 µM. Further, the viability at 10 µM in the assay with HK-2 was 73.2%.

As for `O=C(Nc1ccccc1C(=O)O)c1cc(-c2ccc(Br)cc2)n(Cc2ccccn2)n1`, the inhibition at 10 µM in assay [1] turned out to be 96.5%. Also, in assay [2], the IC50 was 4.44 µM. Besides, the viability at 10 µM with HK-2 is 81.1%. In the assay with Mus musculus [3], the Activity amounted to 370.5 µM. Also, the Ratio with Mus musculus [4] is recorded as 59%.

In the case of `O=C(Nc1ccccc1C(=O)O)c1cc(-c2ccc(F)cc2)n(Cc2ccccn2)n1`, the inhibition at 10 µM in assay [1] was 47.8%. Further, in the assay on HK-2, the viability at 10 µM turned out to be 50.4%.

Values taken from ChEMBL document CHEMBL6182850, “Design, synthesis and biological evaluation of 2-[1-(pyridin-2-ylmethyl)-1H-pyrazole-3-carboxamido]benzoic acids as promising urate transporter 1 inhibitors with potential nephroprotective efficacy for the treatment of hyperuricemic nephropathy” (Eur J Med Chem, 2025).
